The source of these data is US9540392B2, “Thienopyrimidines” (BAYER PHARMA AKTIENGESELLSCHAFT, priority 2012, dated 2017).

The target of this test is T1, human full-length MKNK1 (Homo sapiens, UniProt Q9BUB5, T385D).
T1 construct: GST (N); purchased Carna Biosciences 02-145; host or cells: insect cells (baculovirus expression system)
T1 sequence (Q9BUB5 1-424 isoform Q9BUB5-2 T344D): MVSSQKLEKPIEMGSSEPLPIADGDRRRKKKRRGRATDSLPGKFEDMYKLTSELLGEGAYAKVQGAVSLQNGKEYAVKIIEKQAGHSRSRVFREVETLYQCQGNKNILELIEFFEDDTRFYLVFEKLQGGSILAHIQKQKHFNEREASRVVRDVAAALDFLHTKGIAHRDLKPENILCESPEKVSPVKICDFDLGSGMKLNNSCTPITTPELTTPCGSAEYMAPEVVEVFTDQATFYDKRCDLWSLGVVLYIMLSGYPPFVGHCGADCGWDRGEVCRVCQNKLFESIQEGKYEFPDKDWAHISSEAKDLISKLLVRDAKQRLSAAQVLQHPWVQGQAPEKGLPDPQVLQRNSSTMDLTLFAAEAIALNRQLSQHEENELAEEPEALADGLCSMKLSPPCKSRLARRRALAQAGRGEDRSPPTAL
The experiment in a line: MKNK1 kinase high ATP assay (TR-FRET). The format is biochemical. The following applies: 2 mM ATP, after preincubation with MKNK1; read-out: MKNK1 IC50 (MKNK1 high ATP). The protocol:
MKNK1-inhibitory activity at high ATP of compounds of the present invention after their preincubation with MKNK1 was quantified employing the TR-FRET-based MKNK1 high ATP assay as described in the following paragraphs.
As substrate for the kinase reaction the biotinylated peptide biotin-Ahx-[…] (C-terminus in amide form) was used, which can be purchased e.g. from the company Biosyntan (Berlin-Buch, Germany).
For the assay 50 nL of a 100 fold concentrated solution of the test compound in DMSO was pipetted into a black low volume 384 well microtiter plate (Greiner Bio-One, Frickenhausen, Germany), 2 μL of a solution of MKNK1 in aqueous assay buffer [50 mM HEPES pH 7.5, 5 mM MgCl2, 1.0 mM dithiothreitol, 0.005% (v/v) Nonidet-P40 (Sigma)] was added and the mixture was incubated for 15 min at 22° C. to allow pre-binding of the test compounds to the enzyme before the start of the kinase reaction. Then the kinase reaction was started by the addition of 3 μL of a solution of adenosine-tri-phosphate (ATP, 3.3 mM=>final conc. in the 5 μL assay volume is 2 mM) and substrate (0.1 μM=>final conc. in the 5 μL assay volume is 0.06 μM) in assay buffer and the resulting mixture was incubated for a reaction time of 30 min at 22° C. The concentration of MKNK1 was adjusted depending of the activity of the enzyme lot and was chosen appropriate to have the assay in the linear range, typical concentrations were in the range of 0.003 μg/mL. The reaction was stopped by the addition of 5 μL of a solution of TR-FRET detection reagents (5 nM streptavidine-XL665 [Cisbio Bioassays, Codolet, France] and 1 nM anti-ribosomal protein S6 (pSer236)-antibody from Invitrogen [#44921G] and 1 nM LANCE EU-W1024 Labeled ProteinG [Perkin-Elmer, product no. AD0071]) in an aqueous EDTA-solution (100 mM EDTA, 0.1% (w/v) bovine serum albumin in 50 mM HEPES pH 7.5).
The resulting mixture was incubated for 1 h at 22° C. to allow the formation of complex between the phosphorylated biotinylated peptide and the detection reagents. Subsequently the amount of phosphorylated substrate was evaluated by measurement of the resonance energy transfer from the Eu-chelate to the streptavidine-XL. Therefore, the fluorescence emissions at 620 nm and 665 nm after excitation at 350 nm were measured in a TR-FRET reader, e.g. a Rubystar (BMG Labtechnologies, Offenburg, Germany) or a Viewlux (Perkin-Elmer). The ratio of the emissions at 665 nm and at 622 nm was taken as the measure for the amount of phosphorylated substrate.
In general terms: TR-FRET usually uses a lanthanide donor and a delayed reading to cut background.
Take `O=C(C1CCc2c(sc3ncnc(Nc4ccc5[nH]ncc5c4)c23)C1)N1CCN(Cc2ccccc2)CC1` (racemic) [Example 86, (RS)-(4-benzylpiperazin-1-yl)[4-(1H-indazol-5-ylamino)-5,6,7,8-tetrahydro[1]benzothieno[2,3-d]pyrimidin-7-yl]methanone]: the IC50 is 14.9 nM. The figure for `O=C(C1CCc2c(sc3ncnc(Nc4ccc5[nH]ncc5c4)c23)C1)N1CCN(c2ccccn2)CC1` (racemic) [Example 87, (RS)-[4-(1H-indazol-5-ylamino)-5,6,7,8-tetrahydro[1]benzothieno[2,3-d]pyrimidin-7-yl][4-(pyridin-2-yl)piperazin-1-yl]methanone] is 20.6 nM; for `O=C(C1CCc2c(sc3ncnc(Nc4ccc5[nH]ncc5c4)c23)C1)N1CCCC(CO)C1` (racemic) [Example 88, (RS)-[3-(hydroxymethyl)piperidin-1-yl][4-(1H-indazol-5-ylamino)-5,6,7,8-tetrahydro[1]benzothieno[2,3-d]pyrimidin-7-yl]methanone] it is 9.9 nM; for `O=C(Nc1cc[nH]n1)C1CCc2c(sc3ncnc(Nc4ccc5[nH]ncc5c4)c23)C1` (racemic) [Example 89, (RS)-4-(1H-indazol-5-ylamino)-N-(1H-pyrazol-3-yl)-5,6,7,8-tetrahydro[1]benzothieno[2,3-d]pyrimidine-7-carboxamide] it is 24.1 nM. The figure for `O=C(NCc1cccs1)C1CCc2c(sc3ncnc(Nc4ccc5[nH]ncc5c4)c23)C1` (racemic) [Example 90, (RS)-4-(1H-indazol-5-ylamino)-N-(thiophen-2-ylmethyl)-5,6,7,8-tetrahydro[1]benzothieno[2,3-d]pyrimidine-7-carboxamide] is 16.4 nM; for `CN(C(=O)C1CCc2c(sc3ncnc(Nc4ccc5[nH]ncc5c4)c23)C1)c1ccccc1` (racemic) [Example 91, (RS)-4-(1H-indazol-5-ylamino)-N-methyl-N-phenyl-5,6,7,8-tetrahydro[1]benzothieno[2,3-d]pyrimidine-7-carboxamide] it is 6.6 nM. The figure for `O=C(NCCc1c[nH]cn1)C1CCc2c(sc3ncnc(Nc4ccc5[nH]ncc5c4)c23)C1` (racemic) [Example 92, (RS)-N-[2-(1H-imidazol-4-yl)ethyl]-4-(1H-indazol-5-ylamino)-5,6,7,8-tetrahydro[1]benzothieno[2,3-d]pyrimidine-7-carboxamide] is 9.8 nM; for `O=C(NCCCn1ccnc1)C1CCc2c(sc3ncnc(Nc4ccc5[nH]ncc5c4)c23)C1` (racemic) [Example 93, (RS)-N-[3-(1H-imidazol-1-yl)propyl]-4-(1H-indazol-5-ylamino)-5,6,7,8-tetrahydro[1]benzothieno[2,3-d]pyrimidine-7-carboxamide] it is 9.9 nM. Consider `O=C(Nc1ccncc1)C1CCc2c(sc3ncnc(Nc4ccc5[nH]ncc5c4)c23)C1` (racemic) [Example 94, (RS)-4-(1H-indazol-5-ylamino)-N-(pyridin-4-yl)-5,6,7,8-tetrahydro[1]benzothieno[2,3-d]pyrimidine-7-carboxamide], for which the IC50 worked out at 23.4 nM. The figure for `CCN(CC)CCN(C)C(=O)C1CCc2c(sc3ncnc(Nc4ccc5[nH]ncc5c4)c23)C1` (racemic) [Example 95, (RS)-N-[2-(diethylamino)ethyl]-4-(1H-indazol-5-ylamino)-N-methyl-5,6,7,8-tetrahydro[1]benzothieno[2,3-d]pyrimidine-7-carboxamide] is 20.6 nM; for `CN(C)CCCN(C)C(=O)C1CCc2c(sc3ncnc(Nc4ccc5[nH]ncc5c4)c23)C1` (racemic) [Example 96, (RS)-N-[3-(dimethylamino)propyl]-4-(1H-indazol-5-ylamino)-N-methyl-5,6,7,8-tetrahydro[1]benzothieno[2,3-d]pyrimidine-7-carboxamide] it is 16.3 nM; for `CC(=O)N1CCN(C(=O)C2CCc3c(sc4ncnc(Nc5ccc6[nH]ncc6c5)c34)C2)CC1` (racemic) [Example 97, (RS)-1-(4-{[4-(1H-indazol-5-ylamino)-5,6,7,8-tetrahydro[1]benzothieno[2,3-d]pyrimidin-7-yl]carbonyl}piperazin-1-yl)ethanone] it is 20.3 nM.

For orientation: IC50 means the concentration needed to halve the response being measured.
